Legend:
4T1 cells [1] = experiment: Collagen and fibronectin adhesion assay; assay type: cell-based, mouse; details: pre-coated plates, 4 hours
Procedure: Ninety-six-well plates were coated with 50 μg/ml of collagen or fibronectin. Plates were incubated at 37° C. for 2 hours. Nonspecific sites were blocked with 40 μl of 2 mg/ml bovine serum albumin (BSA) in PBS. Wells were washed once with PBS. Cancer cells were labeled with PKH67 Green fluorescent cell linker, following the manufacturer's instructions (Sigma-Aldrich). Labelled cells were added to pre-coated wells (20,000 cells/well) and allowed to adhere for 4 hours. Non-adhered cells were washed off with PBS and plates were read at 485 nm/535 nm (excitation/emission) wavelengths using a Tecan Infinite M200 Pro plate reader (Tecan, Maennedorf, Switzerland). Values are represented as relative fluorescence unit.

BST-2 = experiment: shRNA knockdown of BST-2 in E0771 and 4T1 cells; assay type: cell-based, mouse; details: E0771 and 4T1 cells stably transduced
Source text: E0771 and 4T1 cells were stably transduced with a construct expressing LV-CMV-firefly luciferase or an empty vector construct using lipofectamine following the manufacturer's instructions (Life Technologies, Carlsbad, Calif., USA). Stable transfectants were then transduced with lentiviral particles carrying BST-2-targeting sh137: CCGGC […] (SEQ ID NO:3); sh413: […] TTCTCAAGCTTTTTG (SEQ ID NO:4); or a non-targeting shControl: […] (SEQ ID NO:5) using a previously described protocol. Stable cells were generated by selection with the appropriate drug. The short hairpin RNA (shRNA) constructs were purchased from Sigma-Aldrich (St Louis, Mo., USA) (SHCLND-NM_198095) and lentiviral particles were generated at the Gene Transfer Vector Core at the University of Iowa.
Cell monolayers were washed with PBS and treated with Versene (Life Technologies). […] Stained cells were quantified using a FACSCalibur flow cytometer (BD Biosciences, San Jose, Calif., USA). […] Fluorescence-activated cell sorting (FACS) data were analyzed by Flowjo software (TreeStar, Ashland, Oreg., USA). […]
Western blots were performed as previously described. […] Band detection and quantification were carried out with the Odyssey Infrared Imaging System (LI-COR Biosciences, Lincoln, Nebr., USA).

4T1 cells [2] = experiment: Tail vein injection of 4T1 cells, lung metastasis; assay type: in vivo, BALB/c mice
Procedure: Metastatic tumors were generated by implanting 300,000 4T1 shControl, sh413 or sh413 WT cells in 100 μl of PBS via tail vein in five-week-old female mice. Prior to imaging, mice were anesthetized, weighed and injected intraperitoneally with D-luciferin. Mice were imaged using the Xenogen IVIS three-dimensional optical imaging system (Caliper Life Sciences). Moreover, lung metastatic tumors were imaged post-mortem and counted grossly. Moreover, spleens from shControl, sh413, or sh413 WT injected mice were isolated and weighted. Average splenic weight was calculated from 3 different mice and plotted in a bar graph. Finally, Kaplan-Meier survival plots were generated and analyzed using the Gehan-Breslow-Wilcoxon test (GraphPrism) (FIG. 44).
Protein from lungs of mice injected with 4T1 shControl, sh413, or sh413 WT cells via tail vein was isolated to perform western blots blotting for total levels of BIM, levels of activated Caspase-3 (Cleaved Caspase-3) and GAPDH. Bands from 3 different western blots were normalized to GAPDH, quantified, averaged and depicted as bar graphs (FIG. 45).

mammary cancer cells = experiment: Scratch assay; assay type: cell-based, mouse; details: 6 h and 24 h
Procedure: Confluent monolayers of cancer cells plated in 12-well plates were scratched using a pipette tip. Fresh medium was added to the wells. Cells were allowed to migrate for 0, 6 or 24 hours before fixation (4% paraformaldehyde (PFA) for 45 minutes). Fixed cells were washed (1×PBS) and imaged with a Nikon Eclipse Ti microscope adjusted with a Nikon digital sight camera (Nikon, Tokyo, Japan). Images were processed and migrated cells counted using Image J software.

4T1 cells [3] = experiment: Anoikis assay (Poly-HEMA); assay type: cell-based, mouse; details: 48 hours
Procedure: 96-well plates were coated with 50 ul of sterile 95% Ethanol or 50 ul of 12 mg/ml Poly-HEMA in 95% Ethanol (Sigma-Aldrich) and allowed to dry for 72 hours under the hood as previously described. (See Phung et al. (2011) Rapid generation of in vitro multicellular spheroids for the study of monoclonal antibody therapy. J Cancer 2: 507-514). Poly-HEMA prevents cells from attaching to the plastic. Following, 4T1 shControl, sh413, sh413 WT, or sh413 C3A cells were plated at 20,000 cells/well. Plates were centrifuged at 1,200 g for 10 minutes and then incubated at 37° C. for 48 hours. Cells were collected to test cell viability using trypan blue (Life technologies) and an MTT assay (Life technologies). The rest of the cells were pelleted and kept at −20° C. until used for RNA and protein isolation.

E0771 cells = experiment: MEF adhesion assay; assay type: cell-based, mouse; details: luciferase bioluminescence and PKH67Green
Procedure: Murine embryonic fibroblasts (MEFs) were grown to confluency in 6-well plates. Equivalent numbers (150,000) of cancer cells labeled with PKH67Green fluorescent cell linker, following the manufacturer's instructions (Sigma-Aldrich), were added to the MEF monolayer and allowed to incubate for 8 hours. Non-adhered cells were washed off and adhered cells imaged. Image J (NIH, Bethesda, Md., USA) was used to quantify the number of PKH67Greenpositive cells. In parallel, luciferase-expressing cancer cells were added to MEFs monolayers in 6-well plates for 8 hours. Non-adhered cells were washed off and adhered cells were treated with D-luciferin and imaged using IVIS. For luciferase assay, cancer cells plated in 96-well plate were used for quantitation of luciferase bioluminescence.

Substance: sh413: BST-2-targeting shRNA (SEQ ID NO:4), delivered by lentiviral particles (CCGGGCTTGAGAATGAAGTCACGAACTCGAGTTCGTGACTTCATTCTCAAGCTTTTTG)
- adhesion to collagen (4T1 cells [1]): reduced adhesive capability
- adhesion to fibronectin (4T1 cells [1]): reduced adhesive capability
- BST-2 expression (BST-2): more efficiently suppressed BST-2
- levels of pro-apoptotic factors (BIM, Caspase-3) in the lungs (4T1 cells [2]; tail vein injected mice): elevates levels of pro-apoptotic factors
- lung metastasis (4T1 cells [2]; tail vein, 42 days): decreases lung metastasis in vivo
- migration into scratch wound (mammary cancer cells): lost the ability to migrate
- susceptibility to anoikis (4T1 cells [3]): renders cells susceptible to anoikis
- cancer cell adhesion to MEF (E0771 cells): decreased the ability of cancer cells to adhere to supporting cells
